Laboratory results reported in the NIST ThermoML archive (doi:10.1021/je700096m).

Assay: xn = mol fraction of the nth substance listed
Conditions: 298.15 K, Liquid

CCCCCCCl [1-chlorohexane] + CN(C)C=O
mass density [kg/m3]
Conditions	x2 = 0.097	x2 = 0.2019	x2 = 0.2707	x2 = 0.4007	x2 = 0.5017	x2 = 0.6155	x2 = 0.6988	x2 = 0.7993	x2 = 0.9018
100 kPa	876.9	881.2	884.4	891.3	897.4	905.4	912.7	921.8	932.6
2000 kPa	878.5	882.8	885.9	892.8	898.8	906.9	914	923.1	933.8
4000 kPa	880.2	884.4	887.5	894.3	900.3	908.4	915.5	924.4	935.1
6000 kPa	881.8	886	889.1	895.8	901.8	909.8	916.8	925.7	936.4
8000 kPa	883.4	887.6	890.7	897.3	903.3	911.2	918.2	927	937.6
10000 kPa	885.1	889.3	892.3	898.8	904.8	912.7	919.6	928.4	938.9
11900 kPa	–	–	–	–	–	914	–	–	–
12000 kPa	886.7	890.8	893.8	900	906.3	–	920.9	929.7	940.1
13900 kPa	–	–	–	–	–	–	–	930.9	–
14000 kPa	888.2	892.3	895.2	901.8	907.6	915.4	922.3	–	941.3
16000 kPa	889.7	893.8	896.7	903.2	909.1	916.8	923	932.1	942.5
17900 kPa	–	–	–	–	–	–	–	933.3	–
18000 kPa	891.2	895.3	898.1	904.6	910.4	918.1	924.9	–	943.6
20000 kPa	892.8	896.6	899.6	906	911.8	919.5	926.2	934.6	944.9

CCCCCCCCCl [1-chlorooctane] + CC(=O)N(C)C
mass density [kg/m3]
Conditions	x2 = 0.0963	x2 = 0.2006	x2 = 0.2938	x2 = 0.4059	x2 = 0.5022	x2 = 0.602	x2 = 0.7005	x2 = 0.8075	x2 = 0.901
100 kPa	872	875.8	879.6	884.87	890.2	896.7	904.1	913.7	923.6
2000 kPa	873.5	877.2	881.1	886.2	891.5	898.1	905.4	914.9	924.8
4000 kPa	875	878.7	882.5	887.6	892.9	899.4	906.8	916.3	926.1
6000 kPa	876.5	880.2	884	889	894.3	900.8	908.1	917.5	927.3
8000 kPa	877.9	881.6	885.5	890.4	895.8	902.2	909.4	918.8	928.5
10000 kPa	879.5	883.1	887	892	897.3	903.6	910.8	920	929.8
12000 kPa	880.9	884.5	888.3	893.3	898.5	904.9	912.1	921.3	931
14000 kPa	882.3	885.9	889.7	894.6	899.9	906.1	913.4	922.4	932.2
15900 kPa	–	–	–	–	–	907.4	–	–	–
16000 kPa	883.7	887.3	891.1	896	901.1	–	914.6	923.7	933.3
18000 kPa	885	888.6	892.4	897.3	902.4	908.7	915.8	924.9	934.4
20000 kPa	886.5	890.1	893.9	898.5	903.8	910	917.1	926.1	935.7
